# Test results taken from patent US6939686B2, “Methodology of using raman imaging microscopy for evaluating drug action within living cells” (Southwest Research Institute, priority 2000, dated 2005).
# System: MDA435 breast cancer cells
# Experiment: Ratio Raman imaging of drug uptake and distribution in a single living cell
# Format: cell-based
# Procedure: Raman imaging of the cell-drug interactions consists of several steps. First, the Raman spectrum of the drug is measured. From the Raman spectrum, the locations and relative intensities of the Raman peaks (or Raman modes) is determined. The combination of the multiple Raman peaks and their relative intensities provides a unique fingerprint of the drug. In the preferred embodiment, the Raman spectrum of the anticancer drug taxol was measured as illustrated in FIG. 1. From the spectrum the most significant Raman mode is 1002 cm^−1.
# In the preferred embodiment the Raman signal of a breast tumor cell was studied and the Raman spectrum was measured. […] The laser beam was focused in the cell cytoplasm and nucleus areas to determine if there was any difference in their spectra. Each measurement was 120 seconds long. FIGS. 2 and 3 illustrate the Raman spectra of the cytoplasm and nucleus of the breast tumor cell, respectively. […]
# The acquired Raman images are then processed by smoothing noises, de-blurring, and removing the intensity contributed from the fluorescence. […]
# The restored Raman signal still contained the non-uniform illumination effect and fluorescent contribution, illustrated as follows: s(x,y)=K(x,y)·i(x,y)·t+Ko(x,y)·i(x,y)·t. From the Raman spectra illustrated in FIGS. 1-3, Raman peaks are riding on a broadband baseline that is contributed from the fluorescence. […]
structure (smiles),measurement,setting,value
CC(=O)O[C@H]1C(=O)[C@@]2(C)[C@H]([C@H](OC(=O)c3ccccc3)[C@]3(O)C[C@H](OC(=O)[C@H](O)[C@@H](NC(=O)c4ccccc4)c4ccccc4)C(C)=C1C3(C)C)[C@]1(OC(C)=O)CO[C@@H]1C[C@@H]2O [taxol],drug distribution within the cell (ratio Raman image at 1002 cm^−1),"breast tumor cell exposed to 0.3 mg/ml taxol solution for one hour, FIG. 5(b)",taxol entered the tumor cell from the top membrane and gradually penetrated into the center of the cell
same,drug distribution at different depths of the cell (stack of ratio Raman images),"breast tumor cell treated with 0.3 mg/ml taxol solution for one hour, FIG. 7",More drug entered the cell from the middle layer (Z=6 μm)
